Source: ChEMBL document CHEMBL1147820, “Enhanced pharmacokinetic properties of 1,4-benzodiazepine-2,5-dione antagonists of the HDM2-p53 protein-protein interaction through structure-based drug design” (Bioorg Med Chem Lett, 2006)

Experiments:
in vitro [1] = settings: human, Caco-2
in vitro [2] = settings: human, Caco-2; remark: listed apart in the source
[3] = Half life in mouse at 5 mg/kg, iv; type: ADME, organism-based; parameters: dose 5 mg/kg, route intravenous; settings: in vivo
[4] = Clearance in mouse at 5 mg/kg, iv; type: ADME, organism-based; parameters: dose 5 mg/kg, route intravenous; settings: in vivo
[5] = Volume of distribution in mouse at 5 mg/kg, iv; type: ADME, organism-based; parameters: dose 5 mg/kg, route intravenous; settings: in vivo, read-out: Vdss
[6] = Cmax in mouse at 40 mg/kg, po; type: ADME, organism-based; parameters: dose 40 mg/kg, route oral; settings: in vivo
[7] = Tmax in mouse at 40 mg/kg, po; type: ADME, organism-based; parameters: dose 40 mg/kg, route oral; settings: in vivo
[8] = Half life in mouse at 40 mg/kg, po; type: ADME, organism-based; parameters: dose 40 mg/kg, route oral; settings: in vivo
[9] = Bioavailability in mouse; type: ADME, organism-based; settings: in vivo

Row | Structure (SMILES) | Papp A→B (in vitro [1]) [×10⁻⁶ cm/s] | Papp B→A (in vitro [2]) [×10⁻⁶ cm/s] | half-life [3] [h] | clearance [4] [mL/min/kg] | Vd [5] [L/kg] | Cmax [6] [µM] | Tmax [7] [h] | half-life [8] [h] | bioavailability [9] [%]
1 | CC#Cc1ccc2c(c1)C(=O)N([C@H](C)c1ccc(Cl)cc1)[C@@H](c1ccc(Cl)cc1)C(=O)N2CCCCC(=O)O | 19.9 | 9.1 |  |  |  |  |  |  | 
2 | C[C@H](c1ccc(Cl)cc1)N1C(=O)c2cc(I)ccc2N(CCCCC(=O)O)C(=O)[C@@H]1c1ccc(Cl)cc1 | 7.34 | 13 | 3.1 | 13.2 | 3 | 6.3 | 6 | 2.5 | 100
3 | C#Cc1ccc2c(c1)C(=O)N([C@H](C)c1ccc(Cl)cc1)[C@@H](c1ccc(Cl)cc1)C(=O)N2CCCCC(=O)O | 20.9 | 16.1 |  |  |  |  |  |  | 
